Results reported in patent US20250002464A1, “NOVEL COMPOUND AND PHARMACEUTICAL COMPOSITION COMPRISING SAME” (SAPIENSBIO INC., priority 2021, published 2025).

Each molecule was assayed on α-SMA (assay: α-SMA expression inhibitory ability in MRC5 cell line (Western blotting)). Conditions: TGF-β1 (10 ng/mL), 72 hours, relative to TGF-β1 only.
Type: cell-based
Procedure: Subsequently, the inhibitory effect on pulmonary fibrosis of the compounds according to the present invention was overall evaluated. An MRC5 cell line was treated with each compound at 10 μM, and 2 hours later, treated with TGF-β1 (10 ng/mL). After 72 hours, the cells were lysed using RIPA Buffer, and then an α-SMA protein level was measured through Western blotting. The α-SMA expression level when treating the cells with each compound and TGF-β1 compared to the α-SMA expression level when treating the cells only with TGF-β1 without the compound was calculated as the α-SMA expression inhibitory ability of the corresponding compound. The α-SMA expression inhibitory ability of each compound is summarized in Table 2 below (A: inhibitory ability≥70%, B: 50%: inhibitory ability<70%, C: inhibitory ability<50%).
CC1CCCN1CCC(=O)N1CCN(c2ccc(F)cc2)c2cc(F)ccc21 (stereo in doubt) [Compound 40, (R)-1-(6-fluoro-4-(4-fluorophenyl)-3,4-dihydroquinoxaline-1(2H)-yl)-3-(2-methylpyrrolidin-1-yl)propan-1-one] was tested, and the inhibition at 10 µM was < 50%.
For O=C(CCN1CCCC1)N1CCN(c2ccccc2)c2cc(F)ccc21 [Compound 1, 1-(6-fluoro-4-phenyl-3,4-dihydroquinoxaline-1(2H)-yl)-3-(pyrrolidin-1-yl)propan-1-one], the inhibition at 10 µM was 50 to 70%.
With O=C(CCN1CCOCC1)N1CCN(c2ccccc2)c2cc(F)ccc21 [Compound 2, 1-(6-fluoro-4-phenyl-3,4-dihydroquinoxaline-1(2H)-yl)-3-morpholinopropan-1-one] the inhibition at 10 µM was < 50%.
In the case of O=C(CCN1CCCCC1)N1CCN(c2ccccc2)c2cc(F)ccc21 [Compound 3, 1-(6-fluoro-4-phenyl-3,4-dihydroquinoxaline-1(2H)-yl)-3-(piperidin-1-yl)propan-1-one], the inhibition at 10 µM is reported as 50 to 70%.
Molecule CN1CCN(CCC(=O)N2CCN(c3ccccc3)c3cc(F)ccc32)CC1 [Compound 4, 1-(6-fluoro-4-phenyl-3,4-dihydroquinoxaline-1(2H)-yl)-3-(4-methylpiperazin-1-yl)propan-1-one] has an inhibition at 10 µM of 50 to 70%.
With C[C@@H]1CCCN1CCC(=O)N1CCN(c2ccccc2)c2cc(F)ccc21 [Compound 5, (R)-1-(6-fluoro-4-phenyl-3,4-dihydroquinoxaline-1(2H)-yl)-3-(2-methylpyrrolidin-1-yl)propan-1-one] the inhibition at 10 µM was < 50%.
C[C@@H]1CCCCN1CCC(=O)N1CCN(c2ccccc2)c2cc(F)ccc21 [Compound 6, (R)-1-(6-fluoro-4-phenyl-3,4-dihydroquinoxaline-1(2H)-yl)-3-(2-methylpiperidin-1-yl)propan-1-one] showed an inhibition at 10 µM of 50 to 70%.
With CC(C(=O)N1CCN(c2ccccc2)c2cc(F)ccc21)N1CCCC[C@H]1C (stereo partly drawn) [Compound 8, 1-(6-fluoro-4-phenyl-3,4-dihydroquinoxaline-1(2H)-yl)-2-((R)-2-methylpiperidin-1-yl)propan-1-one] the inhibition at 10 µM was < 50%.
With CC(C(=O)N1CCN(c2ccccc2)c2cc(F)ccc21)N1CCCC1 (stereo not drawn) [Compound 10, 1-(6-fluoro-4-phenyl-3,4-dihydroquinoxaline-1(2H)-yl)-2-(pyrrolidin-1-yl)propan-1-one] the inhibition at 10 µM was < 50%.
CC(C(=O)N1CCN(c2ccccc2)c2cc(F)ccc21)N1CCN(C)CC1 (stereo not drawn) [Compound 11, 1-(6-fluoro-4-phenyl-3,4-dihydroquinoxaline-1(2H)-yl)-2-(4-methylpiperazin-1-yl)propan-1-one] gave an inhibition at 10 µM of 50 to 70%.
With CC(C(=O)N1CCN(c2ccccc2)c2cc(F)ccc21)N1CCC[C@H]1C (stereo partly drawn) [Compound 13] the inhibition at 10 µM was < 50%.
With O=C(CCN1CCCC1)N1CCN(c2ccc(F)cc2)c2ccccc21 [Compound 14, 1-(4-(4-fluorophenyl)-3,4-dihydroquinoxaline-1(2H)-yl)-3-(pyrrolidin-1-yl)propan-1-one] the inhibition at 10 µM was ≥ 70%.
In the case of O=C(CCN1CCCCC1)N1CCN(c2ccc(F)cc2)c2ccccc21 [Compound 16, 1-(4-(4-fluorophenyl)-3,4-dihydroquinoxaline-1(2H)-yl)-3-(piperidin-1-yl)propan-1-one], the inhibition at 10 µM is reported as ≥ 70%.
In the case of CN1CCN(CCC(=O)N2CCN(c3ccc(F)cc3)c3ccccc32)CC1 [Compound 17, 1-(4-(4-fluorophenyl)-3,4-dihydroquinoxaline-1(2H)-yl)-3-(4-methylpiperazin-1-yl)propan-1-one di-p-toluene sulfonate], the inhibition at 10 µM is reported as 50 to 70%.
For C[C@@H]1CCCCN1CCC(=O)N1CCN(c2ccc(F)cc2)c2ccccc21 [Compound 19, (R)-1-(4-(4-fluorophenyl)-3,4-dihydroquinoxaline-1(2H)-yl)-3-(2-methylpiperidin-1-yl)propan-1-one], the inhibition at 10 µM was < 50%.
O=C(CCN1CCN2CCCC2C1)N1CCN(c2ccc(F)cc2)c2ccccc21 (stereo not drawn) [Compound 20, 1-(4-(4-fluorophenyl)-3,4-dihydroquinoxaline-1(2H)-yl)-3-(hexahydropyrrolo[1,2-a]pyrazin-2(1H)-yl)propan-1-one] gave an inhibition at 10 µM of 50 to 70%.
Molecule O=C(CCNCc1ccccn1)N1CCN(c2ccc(F)cc2)c2ccccc21 [Compound 21, 1-(4-(4-fluorophenyl)-3,4-dihydroquinoxaline-1(2H)-yl)-3-((pyridin-2-ylmethyl)amino)propan-1-one] has an inhibition at 10 µM of 50 to 70%.
In the case of O=C(CCN1CC[C@H](O)C1)N1CCN(c2ccc(F)cc2)c2ccccc21 [Compound 23, (S)-1-(4-(4-fluorophenyl)-3,4-dihydroquinoxaline-1(2H)-yl)-3-(3-hydroxypyrrolidin-1-yl)propan-1-one], the inhibition at 10 µM is reported as ≥ 70%.
In the case of CN1CC[C@@H](NCCC(=O)N2CCN(c3ccc(F)cc3)c3ccccc32)C1 [Compound 26, (R)-1-(4-(4-fluorophenyl)-3,4-dihydroquinoxaline-1(2H)-yl)-3-((1-methylpyrrolidin-3-yl)amino)propan-1-one], the inhibition at 10 µM is reported as ≥ 70%.
With CN1CC[C@H](NCCC(=O)N2CCN(c3ccc(F)cc3)c3ccccc32)C1 [Compound 27, (S)-1-(4-(4-fluorophenyl)-3,4-dihydroquinoxaline-1(2H)-yl)-3-((1-methylpyrrolidin-3-yl)amino)propan-1-one] the inhibition at 10 µM was ≥ 70%.
With O=C(CCN1CCNCC1)N1CCN(c2ccc(F)cc2)c2ccccc21 [Compound 28, 1-(4-(4-fluorophenyl)-3,4-dihydroquinoxaline-1(2H)-yl)-3-(piperazin-1-yl)propan-1-one] the inhibition at 10 µM was ≥ 70%.
With O=C(CCc1cnc[nH]1)N1CCN(c2ccc(F)cc2)c2ccccc21 [Compound 29, 1-(4-(4-fluorophenyl)-3,4-dihydroquinoxaline-1(2H)-yl)-3-(1H-imidazol-5-yl)propan-1-one] the inhibition at 10 µM was ≥ 70%.
CN1CCN(CCCN2CCN(c3ccc(F)cc3)c3ccccc32)CC1 [Compound 30, 1-(4-fluorophenyl)-4-(3-(4-methylpiperazin-1-yl)propyl)-1,2,3,4-tetrahydroquinoxaline] was tested, and the inhibition at 10 µM was ≥ 70%.
Work on CC(C(=O)N1CCN(c2ccc(F)cc2)c2ccccc21)N1CCCC1 (stereo not drawn) [Compound 33, 1-(4-(4-fluorophenyl)-3,4-dihydroquinoxaline-1(2H)-yl)-2-(pyrrolidin-1-yl)propan-1-one] yielded an inhibition at 10 µM of 50 to 70%.
With CC(C(=O)N1CCN(c2ccc(F)cc2)c2ccccc21)N1CCN(C)CC1 (stereo not drawn) [Compound 34, 1-(4-(4-fluorophenyl)-3,4-dihydroquinoxaline-1(2H)-yl)-2-(4-methylpiperazin-1-yl)propan-1-one] the inhibition at 10 µM was < 50%.
O=C(CCN1CCCC1)N1CCN(c2ccc(F)cc2)c2cc(F)ccc21 [Compound 36, 1-(6-fluoro-4-(4-fluorophenyl)-3,4-dihydroquinoxaline-1(2H)-yl)-3-(pyrrolidin-1-yl)propan-1-one] was tested, and the inhibition at 10 µM was ≥ 70%.
O=C(CCN1CCOCC1)N1CCN(c2ccc(F)cc2)c2cc(F)ccc21 [Compound 37, 1-(6-fluoro-4-(4-fluorophenyl)-3,4-dihydroquinoxaline-1(2H)-yl)-3-morpholinopropan-1-one] was tested, and the inhibition at 10 µM was < 50%.
CN1CCN(CCC(=O)N2CCN(c3ccc(F)cc3)c3cc(F)ccc32)CC1 [Compound 39, 1-(6-fluoro-4-(4-fluorophenyl)-3,4-dihydroquinoxaline-1(2H)-yl)-3-(4-methylpiperazin-1-yl)propan-1-one] was tested, and the inhibition at 10 µM was 50 to 70%.
C[C@@H]1CCCCN1CCC(=O)N1CCN(c2ccc(F)cc2)c2cc(F)ccc21 [Compound 41, (R)-1-(6-fluoro-4-(4-fluorophenyl)-3,4-dihydroquinoxaline-1(2H)-yl)-3-(2-methylpiperidin-1-yl)propan-1-one] was tested, and the inhibition at 10 µM was < 50%.
O=C(CCN1CCN2CCCC2C1)N1CCN(c2ccc(F)cc2)c2cc(F)ccc21 (stereo not drawn) [Compound 42, 1-(6-fluoro-4-(4-fluorophenyl)-3,4-dihydroquinoxaline-1(2H)-yl)-3-(hexahydropyrrolo[1,2-a]pyrazin-2(1H)-yl)propan-1-one] was tested, and the inhibition at 10 µM was < 50%.
With O=C(CCN1CCN(C2CC2)CC1)N1CCN(c2ccc(F)cc2)c2cc(F)ccc21 [Compound 43, 3-(4-cyclopropylpiperazin-1-yl)-1-(6-fluoro-4-(4-fluorophenyl)-3,4-dihydroquinoxaline-1(2H)-yl)propan-1-one] the inhibition at 10 µM was < 50%.
For O=C(CCN1CC[C@H](O)C1)N1CCN(c2ccc(F)cc2)c2cc(F)ccc21 [Compound 44, (S)-1-(6-fluoro-4-(4-fluorophenyl)-3,4-dihydroquinoxaline-1(2H)-yl)-3-(3-hydroxypyrrolidin-1-yl)propan-1-one], the inhibition at 10 µM was ≥ 70%.
With O=C(CCc1cnc[nH]1)N1CCN(c2ccc(F)cc2)c2cc(F)ccc21 [Compound 46, 1-(6-fluoro-4-(4-fluorophenyl)-3,4-dihydroquinoxaline-1(2H)-yl)-3-(1H-imidazol-5-yl)propan-1-one] the inhibition at 10 µM was ≥ 70%.
N[C@@H](Cc1c[nH]cn1)C(=O)N1CCN(c2ccc(F)cc2)c2cc(F)ccc21 [Compound 47, (S)-2-amino-1-(6-fluoro-4-(4-fluorophenyl)-3,4-dihydroquinoxaline-1(2H)-yl)-3-(1H-imidazol-4-yl)propan-1-one] was tested, and the inhibition at 10 µM was 50 to 70%.
With N[C@H](Cc1c[nH]cn1)C(=O)N1CCN(c2ccc(F)cc2)c2cc(F)ccc21 [Compound 48, (R)-2-amino-1-(6-fluoro-4-(4-fluorophenyl)-3,4-dihydroquinoxaline-1(2H)-yl)-3-(1H-imidazol-4-yl)propan-1-one] the inhibition at 10 µM was < 50%.
CC(C(=O)N1CCN(c2ccc(F)cc2)c2cc(F)ccc21)N1CCCC[C@H]1C (stereo partly drawn) [Compound 49, 1-(6-fluoro-4-(4-fluorophenyl)-3,4-dihydroquinoxaline-1(2H)-yl)-2-((R)-2-methylpiperidin-1-yl)propan-1-one] was tested, and the inhibition at 10 µM was < 50%.
